The nature of data set [1]: log D7.4 by shake-flask method (1-octanol/PBS). The data set is classed as physicochemical. The protocol: (§1) One explanation for the high IC50 values (i.e., low activity) of the new compounds is their potential poor solubility in aqueous solution or inadequate lipophilicity. To investigate this hypothesis, we determined kinetic solubility in […] phosphate buffer at pH 7.4 (Table 1). […] The remaining two compounds, BE and 29, show low solubilities (<0.1 μM). […] Additionally, since approximately 95% of drugs are ionizable, assessment of lipophilicity at pH 7.4 (log D7.4) is essential during the initial phases of drug discovery. In this study, we employ the shake-flask method to evaluate this property. […] Because lipophilicity directly reflects compound–membrane interaction, the activity of these compounds against PANC-1 cells likely stems from their interaction with the cell membrane.
The basic solution is titrated with the acidic solution to achieve pH 7.4, with the pH verified and adjusted to 7.4 ± 0.1 on the experiment day. Saturated 1-octanol and PBS (pH 7.4) are also prepared. The stock solutions of test compounds and control compound progesterone are prepared in DMSO at a concentration of 10 mM (0.666 mM: compound 39). The detailed procedure for log D determinations can be found in the SI. […]
4. Procedure for log D determinations […]
µL of phosphate buffer saturated 1-octanol to get a concentration of 300 µM working solution. 20 µL of 300 µM compound solution is placed in order into their proper 96-well rack followed by the addition of 980 µL of 1-octanol saturated phosphate buffer. One stir stick is added to each vial and vials are sealed molded PTFE/Silicone plugs. Then the log D plate is transferred to the Eppendorf Thermomixer Comfort plate shaker and shaken at 25°C at 1,100 RPM for 1 h. The assay is performed in duplicate. After completion of 1 h, the stir sticks are removed using a big magnet. The samples are then centrifuged at 25°C at 20,000 g for 20 minutes to separate the phases, and syringe is used to remove the lower (buffer) phases to the empty tubes. Then the buffer phase is diluted with the same volume of acetonitrile/ultrapure water (50%/50%) for LC-MS/MS analysis. 300 µM working solution is diluted with acetonitrile/ultrapure water (50%/50%) to achieve a concentration of 3 µM. Then the 3 µM solution is diluted to 0.3 µM to get the total samples by adding 4 volumes of acetonitrile/ultrapure water (50%/50%) and 5 volumes of 1-octanol saturated Phosphate Buffer for LC-MS/MS analysis. […]
test compounds and control compound is placed in order into their 2.0 mL deep well plate, 500 µL of […]
followed by the addition of 500 µL of saturated PBS (pH 7.4). Seal the plate using a Silicone sealing mat.
Then the log D plate is transferred to the Eppendorf Thermomixer Comfort plate shaker and shaken at 25°C at 2,000 RPM for 2 h. After completion of 2 h, the samples are then centrifuged at 25°C at 3,220 g for 30 minutes to separate the phases, and pipette are used to remove the upper (1-octanol) and lower (buffer) phases to the empty tubes, respectively. Aliquots of 50 µL are taken from upper phases followed by addition of 450 µL of acetonitrile (containing internal standards (IS, 200 nM labetalol, 100 nM tolbutamide and 100 nM ketoprofen)). Mix with a pipette, and then aliquots of 50 µL are taken from the diluent followed by addition of 450 µL of acetonitrile (containing internal standards (IS, 200 nM labetalol, 100 nM tolbutamide and 100 nM ketoprofen)). […]

Data set [2] can be described thus: Caco-2 cell permeability study. The class given is in vitro ADME. Particulars: human; for efflux ratio at 2 h, 5 µM: Caco-2, pH 7.4; for recovery at 2 h, 5 μM: Caco-2, pH 7.4, Caco-2, 5 μM; for Papp A→B at 2 h, 5 µM / Papp B→A at 2 h, 5 µM: pH 7.4, Caco-2, 5 μM; for Papp A→B at 2 h, 5 µM: apical to basolateral; for Papp B→A at 2 h, 5 µM: basolateral to apical. The text has this: One of the physicochemical quantities that mirrors the interaction of a compound with the cell membrane is permeability. Traditionally, measuring permeability with the PAMPA model provides estimates of passive permeability across a model membrane. […] Therefore, we measure the cell permeability of the six compounds using Caco-2 cells, so that the apical to basolateral (A to B) and basolateral to apical (B to A) permeabilities, and thereby the efflux ratio, can be determined. Three commercial drugs (Table 2) are used as standard compounds to establish and validate our in-house assay.
For Caco-2 cells (originally obtained from the American Type Culture Collection; ATCC, Manassas, VA, USA), 50 μL and […] of cell culture medium are added to each well of the Transwell insert and reservoir, respectively. And then the HTS transwell plates are incubated at 37 °C, 5% CO2 for 1 h before cell seeding. Caco-2 cells are diluted to 6.86 × 10^5 cells/mL with culture medium and 50 μL of cell suspension is dispensed into the filter well of the 96-well HTS Transwell plate. Cells are cultivated for 14–18 days in a cell culture incubator at 37 °C, 5% CO2, 95% relative humidity. Cell culture medium is replaced every other day, beginning no later than 24 h after initial plating. Stock solutions of the test compounds are prepared at a concentration of 10 mM in DMSO. […] Detailed assay procedures are provided in the SI. […]
dilution factor is changed according to the log D value and the LC-MS signal response. The samples are evaluated by LC-MS/MS analysis. All experiments are performed in duplicates.
5. Caco-2 Cell Permeability Assay
The Caco-2 plate is removed from the incubator and washed twice with pre-warmed HBSS (10 mM HEPES, pH 7.4), and then incubated at 37 °C for 30 minutes. The stock solutions of control compounds and test compounds are diluted in DMSO to get 1 mM solutions and then diluted with HBSS (10 mM HEPES, pH 7.4) get 5 μM working solutions. The final concentration of DMSO in the incubation system is 0.5%. To determine the rate of drug transport in the apical to basolateral direction. 125 μL of 5 μM working solution of control compounds and test compounds are added to the Transwell insert (apical compartment), and transfer 50 μL sample (D0 sample) immediately from the apical compartment to a new 96-well plate. Fill the wells in the receiver plate (basolateral compartment) with 235 μL of HBSS (10 mM HEPES, pH 7.4). To determine the rate of drug transport in the basolateral to apical direction. 285 μL of 5 μM working solution of control compounds and test compounds are to the receiver plate wells (basolateral compartment), and transfer 50 μL sample (D0 sample) immediately from the basolateral compartment to a new 96-well plate.
Fill the wells in the Transwell insert (apical compartment) with 75 μL of HBSS (10 mM HEPES, pH 7.4).
The assay is performed in duplicate. The plates are incubated at 37 °C for 2 h. At the end of the incubation, 50 μL samples from donor sides (apical compartment for Ap→Bl flux, and basolateral compartment for Bl→Ap) and receiver sides (basolateral compartment for Ap→Bl flux, and apical compartment for Bl→Ap) are transferred to wells of a new 96-well plate, followed by the addition of 4 volume of cold acetonitrile containing appropriate internal standards (IS). Samples are Vortexed for 5 minutes and then centrifuged at 3,220 g for 30 minutes. An aliquot of 100 µL of the supernatant is mixed with an appropriate volume of ultra-pure water before LC-MS/MS analysis (see SI Bioanalytical Method for Caco-2 Cell Permeability […]
Papp (A to B) is greater than the Papp (A to B) of minoxidil it is assigned as high permeability. If the Papp (A to B) is […]
On the technique in general: Caco-2 cells form a polarised layer with tight junctions and transporters.

The nature of data set [3]: Kinetic solubility in PBS pH 7.4. Particulars: sodium phosphate buffer (PBS), 25 °C, pH 7.4, aqueous buffer, kinetic from dmso stock, PBS pH 7.4, 25 °C. The class given is physicochemical. The protocol:
as §1
Solubility is determined in 100 mM sodium phosphate buffer (PBS), pH 7.4. The stock solutions of test compound and control compound progesterone are prepared in DMSO at a concentration of 10 mM. 30 µL of working solutions of each sample is placed in order into their proper 96-well rack. 970 µL of PBS pH 7.4 is added into each vial of the cap-less Solubility Sample plate. The assay is performed in duplicate. Add one stir stick to each vial and seal using a molded PTFE/Silicone plug. Then the Solubility Sample plate is transferred to the Eppendorf Thermomixer Comfort plate shaker and shaken at 25 °C at 1100 RPM for 2 h. After completion of the 2 h, plugs are removed and the stir sticks are removed using a big magnet, the samples from the Solubility Sample plate are transferred into the filter plate. Using the Vacuum Manifold, all the samples are filtered. Aliquot of 5 µL is taken from the filtrate, followed by addition of 5 µL DMSO and 490 µL of a mixture of H2O and acetonitrile (1:1 in v/v). 200 μL of diluent is transferred to a new 96-well plate for LC-MS/MS analysis (see SI Bioanalytical Method for Solubility Measurement). The dilution factor is changed according to the solubility values and the LC-MS signal response.
MRM) / -4500 v (negative MRM). […]
13. Bioanalytical Method for Solubility Measurement
MS analysis: Triple Quad TM 5500 instrument from AB Inc (Canada) with an ESI interface
Injection volume: 1 μL, 3 μL, 5 μL or 10 μL
Column: ACQUITY UPLC BEH C18 (2.1 × 50 mmI.D. S-1.7 μm, 12 nm) Column
Mobile phase: 0.1% Ammonium hydroxide solution in water (A) and 0.1% Ammonium hydroxide solution
Column: XSelect Hss T3 2.5μm (2.1 × 50 mm) Column XP
Mobile phase: 0.1% formic acid in water (A) and 0.1% formic acid in acetonitrile (B)

[4] abbreviates: read-out: Mean % Solution Recovery A to B.
Where [5] appears, read: read-out: Mean % Solution Recovery B to A.

Data on four molecules can be found in PMC12843137, “Fine-Tuning Side Chain Substitutions: Impacts on the Lipophilicity–Solubility–Permeability Interplay in Macrocyclic Peptides” (Marine Drugs, 2025).

Converted amounts (≈) assume the structure as drawn. Read-outs that look alike come from different tables or passages of the source.

For orientation: efflux ratio means the permeability from basolateral to apical divided by that in the opposite direction, in the common usage. Usually Papp A→B stands for how fast a substance crosses the layer from the apical side. Broadly, the Papp B→A is the apparent permeability from the basolateral to the apical side of a cell layer. As for `C[C@@H]1C(=O)[C@](C)(O)C(=O)NCC(=O)N[C@H](CN2CCN(C)CC2)/C=C/C(=O)N(C)CC(=O)O[C@H]1CCCCCc1cn(CCCCCCCCCC(=O)O)nn1` [Compound 39], the “log D7.4” value in data set [1] (1-Octanol/PBS pH 7.4, shake-flask) is −0.30. In data set [2], the efflux ratio at 2 h, 5 µM worked out at 1.26; the Papp A→B at 2 h, 5 µM was 0.0836 ×10⁻⁶ cm/s; the Papp B→A at 2 h, 5 µM stood at 0.105 ×10⁻⁶ cm/s. Besides, the recovery at 2 h, 5 μM in data set [2] (setting [4]) worked out at 99.5%. For the same molecule, the recovery at 2 h, 5 μM in data set [2] (setting [5]) worked out at 48.6%.
For `C[C@H]1O[C@@H](O[C@H]2[C@@H](O)C[C@H](O[C@H]3[C@@H](O)C[C@H](O[C@H]4CC[C@@]5(C)[C@H](CC[C@@H]6[C@@H]5C[C@@H](O)[C@]5(C)[C@@H](C7=CC(=O)OC7)CC[C@]65O)C4)O[C@@H]3C)O[C@@H]2C)C[C@H](O)[C@@H]1O` [Digoxin, reference compound], in data set [2], the efflux ratio at 2 h, 5 µM came out at 25.9; the Papp A→B at 2 h, 5 µM is 0.77 ×10⁻⁶ cm/s; the Papp B→A at 2 h, 5 µM was 20 ×10⁻⁶ cm/s. Moreover, in data set [2] (setting [4]), the recovery at 2 h, 5 μM turned out to be 83.2%. For the same molecule, in data set [2] (setting [5]), the recovery at 2 h, 5 μM was determined as 95%.
The matching figures for `Nc1cc(N2CCCCC2)nc(N)[n+]1[O-]` [Minoxidil, reference compound]: 1.08, 9.52 ×10⁻⁶ cm/s, 10.3 ×10⁻⁶ cm/s, 104% and 106%.
A word on the logD: it is lipophilicity at a set pH, counting ionised and neutral species. Low values mean a more hydrophilic compound, high ones a more lipophilic compound. Broadly, the solubility is how much of the substance goes into solution per volume. Read a high solubility as much dissolved substance. On to `CC(=O)[C@H]1CC[C@H]2[C@@H]3CCC4=CC(=O)CC[C@]4(C)[C@H]3CC[C@]12C` [Progesterone, reference compound], for which the log distribution coefficient (logD) in data set [1] (1-octanol/PBS, pH 7.4, 1-Octanol/PBS pH 7.4, shake-flask) worked out at 3.85. In data set [3], this molecule gave a solubility at 2 h of 13.1 µM (≈ 4.13 µg/mL).
